This passage reports IC50 results from ChEMBL document CHEMBL5608172, “Structural modification strategies of triazoles in anticancer drug development” (Eur J Med Chem, 2024).

In general, IC50 refers to the concentration at which inhibition is half-maximal.

Assay type in all cases: functional, cell-based
One experiment has as its system HeLa. The experiment can be described thus: Cytotoxicity against human HeLa cells assessed as reduction in cell viability after 72 hrs by MTT assay.
The test system of the next experiment is MCF7. The experiment can be described thus: Cytotoxicity against human MCF7 cells assessed as reduction in cell viability incubated for 48 hrs by MTT assay. As to conditions: MCF7, 48 h. For orientation: Tetrazolium assays rely on reduction of a dye to a coloured formazan, in cell work by metabolically active cells.
Another experiment deals with HT-29. Put plainly: Cytotoxicity against human HT-29 cells assessed as reduction in cell viability incubated for 48 hrs by MTT assay. To be noted: HT-29, 48 h.
In another experiment the test system is HepG2. The experiment can be described thus: Cytotoxicity against human HepG2 cells assessed as reduction in cell viability incubated for 48 hrs by MTT assay. As to conditions: HepG2, 48 h.

With `CC(=O)O[C@@H]1[C@H](OC(C)=O)[C@H](OC(C)=O)CO[C@H]1n1cc(COC(=O)[C@]2(C)CCC[C@@]3(C)[C@@H]4CC[C@@]5(C)C[C@]4(CC[C@@H]32)CC5=O)nn1`, the IC50 with HeLa is 1.7 µM. On to `Cc1nccc2c1[nH]c1cc(OCc3cn(-c4cc(=O)oc5ccccc45)nn3)ccc12`, for which, in the experiment with MCF7, the IC50 stood at 6.9 µM. As to `O=c1oc2ccccc2c(O)c1Sc1nnc(-c2ccc(Cl)cc2)o1`, the results for the IC50 with HT-29 and with HepG2 were 18.6 µM and 3.46 µM, respectively.
